Measured values from US10131652B2, “Pyrimidinyloxy benzene derivatives as herbicides” (E. I. DU PONT DE NEMOURS AND COMPANY, priority 2014, dated 2018).

Assays:
Assay in all cases: Test D pre-/postemergence plant response
Type in all cases: in vivo
[1] = tested on: soybean (Glycine max)
How it was run: (§1)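 Preemergence: seeds in loam/sand blend treated with test chemicals in non-phytotoxic solvent with surfactant; postemergence: plants at 2–18 cm (1- to 4-leaf stage) in peat-based medium sprayed likewise. Greenhouse 13 to 15 days, then visual rating vs controls, 0 (no effect) to 100 (complete control).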

[2] = tested on: johnsongrass (Sorghum halepense)
How it was run: as §1

[3] = tested on: galium (catchweed bedstraw, Galium aparine)
How it was run: as §1

[4] = tested on: blackgrass (Alopecurus myosuroides)
How it was run: as §1

[5] = tested on: large (Lg) crabgrass (Digitaria sanguinalis)
How it was run: as §1

[6] = tested on: morningglory (Ipomoea coccinea)
How it was run: as §1

[7] = tested on: pigweed (Amaranthus retroflexus)
How it was run: as §1

[8] = tested on: yellow nutsedge (Cyperus esculentus)
How it was run: as §1

[9] = tested on: giant foxtail (Setaria faberii)
How it was run: as §1

[10] = tested on: ragweed (common ragweed, Ambrosia elatior)
How it was run: as §1

[11] = tested on: waterhemp (common waterhemp, Amaranthus rudis)
How it was run: as §1

[12] = tested on: lambsquarters (Chenopodium album)
How it was run: as §1

[13] = tested on: oilseed rape (Brassica napus)
How it was run: as §1

[14] = tested on: winter wheat (Triticum aestivum)
How it was run: as §1

[15] = tested on: velvetleaf (Abutilon theophrasti)
How it was run: as §1

[16] = tested on: corn (Zea mays)
How it was run: as §1

[17] = tested on: Italian ryegrass (Lolium multiflorum)
How it was run: as §1

[18] = tested on: barnyardgrass (Echinochloa crus-galli)
How it was run: as §1

[19] = Postemergence, 31 g ai/ha, scale 0 to 100 (0 no effect, 100 complete control)
[20] = Postemergence, 62 g ai/ha, scale 0 to 100, 0 no effect, 100 complete control
[21] = Postemergence, 125 g ai/ha, scale 0 to 100, 0 no effect, 100 complete control
[22] = Preemergence, 16 g ai/ha, scale 0 to 100 (0 no effect, 100 complete control)
[23] = Preemergence, 31 g ai/ha, scale 0 to 100 (0 no effect, 100 complete control)
[24] = Preemergence, 62 g ai/ha, scale 0 to 100 (0 no effect, 100 complete control)

`FC(F)c1cc(-c2c(Cl)cccc2Oc2ncc(Cl)cn2)no1` [Compound 179] was tested, and the “Plant response rating (scale 0 to 100), Soybean” value ([1]; Postemergence, 16 g ai/ha) was 25, the “Soybean plant response rating” value [1, 19] was 45 and the “Soybean plant response rating” value [1, 20] was 70. The “Plant response rating, Soybean” value [1, 21] was 70, the “Plant response rating (scale 0 to 100), Soybean” value ([1]; Preemergence, 125 g ai/ha) was 45 and the “Plant response rating, Soybean” value [1, 22] was 0. The “Plant response rating, Soybean” value [1, 23] was 0, the “Plant response rating, Soybean” value [1, 24] was 30 and the “Plant response rating (scale 0 to 100), Johnsongrass” value ([2]; Postemergence, 16 g ai/ha) was 0. The “Johnsongrass plant response rating” value [2, 19] was 5, the “Plant response rating, Johnsongrass” value [2, 20] was 5 and the “Plant response rating, Johnsongrass” value [2, 21] was 5. For the same compound, the “Plant response rating (scale 0 to 100), Johnsongrass” value ([2]; Preemergence, 125 g ai/ha) was 65, the “Plant response rating, Johnsongrass” value [2, 22] was 0 and the “Plant response rating, Johnsongrass” value [2, 23] was 0. For the same compound, the “Plant response rating, Johnsongrass” value [2, 24] was 20, the “Plant response rating (scale 0 to 100), Galium” value ([3]; Postemergence, 16 g ai/ha) was 70 and the “Galium plant response rating” value [3, 19] was 80. The “Plant response rating, Galium” value [3, 20] was 70, the “Plant response rating, Galium” value [3, 21] was 75 and the “Plant response rating (scale 0 to 100), Galium” value ([3]; Preemergence, 125 g ai/ha) was 98. For the same compound, the “Plant response rating, Galium” value [3, 22] was 90, the “Plant response rating, Galium” value [3, 23] was 90 and the “Plant response rating, Galium” value [3, 24] was 90. For the same compound, the “Plant response rating (scale 0 to 100), Blackgrass” value ([4]; Postemergence, 16 g ai/ha) was 5, the “Blackgrass plant response rating” value [4, 19] was 5 and the “Plant response rating, Blackgrass” value [4, 20] was 15. For the same compound, the “Plant response rating, Blackgrass” value [4, 21] was 20, the “Plant response rating (scale 0 to 100), Blackgrass” value ([4]; Preemergence, 125 g ai/ha) was 80 and the “Plant response rating, Blackgrass” value [4, 22] was 0. The “Plant response rating, Blackgrass” value [4, 23] was 30, the “Plant response rating, Blackgrass” value [4, 24] was 45 and the “Plant response rating (scale 0 to 100), Crabgrass, Large” value ([5]; Postemergence, 16 g ai/ha) was 5. For the same compound, the “Crabgrass, Large plant response rating” value [5, 19] was 5, the “Plant response rating, Crabgrass, Large” value [5, 20] was 5 and the “Plant response rating, Crabgrass, Large” value [5, 21] was 5. For the same compound, the “Plant response rating (scale 0 to 100), Crabgrass, Large” value ([5]; Preemergence, 125 g ai/ha) was 100, the “Plant response rating, Crabgrass, Large” value [5, 22] was 10 and the “Plant response rating, Crabgrass, Large” value [5, 23] was 65. The “Plant response rating, Crabgrass, Large” value [5, 24] was 75, the “Plant response rating (scale 0 to 100), Morningglory” value ([6]; Postemergence, 16 g ai/ha) was 30 and the “Morningglory plant response rating” value [6, 19] was 65. The “Morningglory plant response rating” value [6, 20] was 85, the “Plant response rating, Morningglory” value [6, 21] was 90 and the “Plant response rating (scale 0 to 100), Morningglory” value ([6]; Preemergence, 125 g ai/ha) was 15. The “Plant response rating, Morningglory” value [6, 22] was 0, the “Plant response rating, Morningglory” value [6, 23] was 0 and the “Plant response rating, Morningglory” value [6, 24] was 0. For the same compound, the “Plant response rating (scale 0 to 100), Pigweed” value ([7]; Postemergence, 16 g ai/ha) was 80, the “Pigweed plant response rating” value [7, 19] was 90 and the “Pigweed plant response rating” value [7, 20] was 98. For the same compound, the “Plant response rating, Pigweed” value [7, 21] was 98, the “Plant response rating (scale 0 to 100), Pigweed” value ([7]; Preemergence, 125 g ai/ha) was 100 and the “Plant response rating, Pigweed” value [7, 22] was 30. For the same compound, the “Plant response rating, Pigweed” value [7, 23] was 100, the “Plant response rating, Pigweed” value [7, 24] was 100 and the “Plant response rating (scale 0 to 100), Nutsedge, Yellow” value ([8]; Postemergence, 16 g ai/ha) was 5. The “Nutsedge, Yellow plant response rating” value [8, 19] was 5, the “Nutsedge, Yellow plant response rating” value [8, 20] was 5 and the “Plant response rating, Nutsedge, Yellow” value [8, 21] was 5. For the same compound, the “Plant response rating (scale 0 to 100), Nutsedge, Yellow” value ([8]; Preemergence, 125 g ai/ha) was 25, the “Plant response rating, Nutsedge, Yellow” value [8, 22] was 0 and the “Plant response rating, Nutsedge, Yellow” value [8, 23] was 0. The “Plant response rating, Nutsedge, Yellow” value [8, 24] was 0, the “Plant response rating (scale 0 to 100), Foxtail, Giant” value ([9]; Postemergence, 16 g ai/ha) was 5 and the “Foxtail, Giant plant response rating” value [9, 19] was 5. The “Plant response rating, Foxtail, Giant” value [9, 20] was 40, the “Plant response rating, Foxtail, Giant” value [9, 21] was 30 and the “Plant response rating (scale 0 to 100), Foxtail, Giant” value ([9]; Preemergence, 125 g ai/ha) was 85. The “Plant response rating, Foxtail, Giant” value [9, 22] was 5, the “Plant response rating, Foxtail, Giant” value [9, 23] was 30 and the “Plant response rating, Foxtail, Giant” value [9, 24] was 85. The “Plant response rating (scale 0 to 100), Ragweed” value ([10]; Postemergence, 16 g ai/ha) was 30, the “Ragweed plant response rating” value [10, 19] was 25 and the “Ragweed plant response rating” value [10, 20] was 50. The “Plant response rating, Ragweed” value [10, 21] was 60, the “Plant response rating (scale 0 to 100), Ragweed” value ([10]; Preemergence, 125 g ai/ha) was 60 and the “Plant response rating, Ragweed” value [10, 22] was 25. The “Plant response rating, Ragweed” value [10, 23] was 30, the “Plant response rating, Ragweed” value [10, 24] was 40 and the “Plant response rating (scale 0 to 100), Waterhemp” value ([11]; Postemergence, 16 g ai/ha) was 60. For the same compound, the “Waterhemp plant response rating” value [11, 19] was 90, the “Waterhemp plant response rating” value [11, 20] was 95 and the “Plant response rating, Waterhemp” value [11, 21] was 98. For the same compound, the “Plant response rating (scale 0 to 100), Waterhemp” value ([11]; Preemergence, 125 g ai/ha) was 100, the “Plant response rating, Waterhemp” value [11, 22] was 75 and the “Plant response rating, Waterhemp” value [11, 23] was 90. For the same compound, the “Plant response rating, Waterhemp” value [11, 24] was 90, the “Plant response rating (scale 0 to 100), Lambsquarters” value ([12]; Postemergence, 16 g ai/ha) was 70 and the “Lambsquarters plant response rating” value [12, 19] was 75. For the same compound, the “Lambsquarters plant response rating” value [12, 20] was 75, the “Plant response rating, Lambsquarters” value [12, 21] was 100 and the “Plant response rating (scale 0 to 100), Lambsquarters” value ([12]; Preemergence, 125 g ai/ha) was 100. For the same compound, the “Plant response rating, Lambsquarters” value [12, 22] was 75, the “Plant response rating, Lambsquarters” value [12, 23] was 100 and the “Plant response rating, Lambsquarters” value [12, 24] was 100. For the same compound, the “Plant response rating (scale 0 to 100), Oilseed Rape” value ([13]; Postemergence, 16 g ai/ha) was 40, the “Oilseed Rape plant response rating” value [13, 19] was 75 and the “Oilseed Rape plant response rating” value [13, 20] was 85. For the same compound, the “Plant response rating, Oilseed Rape” value [13, 21] was 100, the “Plant response rating (scale 0 to 100), Oilseed Rape” value ([13]; Preemergence, 125 g ai/ha) was 100 and the “Plant response rating, Oilseed Rape” value [13, 22] was 30. For the same compound, the “Plant response rating, Oilseed Rape” value [13, 23] was 95, the “Plant response rating (scale 0 to 100), Wheat” value ([14]; Postemergence, 16 g ai/ha) was 5 and the “Wheat plant response rating” value [14, 19] was 10. The “Wheat plant response rating” value [14, 20] was 30, the “Plant response rating, Wheat” value [14, 21] was 35 and the “Plant response rating (scale 0 to 100), Wheat” value ([14]; Preemergence, 125 g ai/ha) was 35. The “Plant response rating, Wheat” value [14, 22] was 0, the “Plant response rating, Wheat” value [14, 23] was 0 and the “Plant response rating, Wheat” value [14, 24] was 0. For the same compound, the “Plant response rating (scale 0 to 100), Velvetleaf” value ([15]; Postemergence, 16 g ai/ha) was 15, the “Velvetleaf plant response rating” value [15, 19] was 20 and the “Velvetleaf plant response rating” value [15, 20] was 30. The “Plant response rating, Velvetleaf” value [15, 21] was 70, the “Plant response rating (scale 0 to 100), Velvetleaf” value ([15]; Preemergence, 125 g ai/ha) was 100 and the “Plant response rating, Velvetleaf” value [15, 22] was 15. For the same compound, the “Plant response rating, Velvetleaf” value [15, 23] was 65, the “Plant response rating, Velvetleaf” value [15, 24] was 85 and the “Plant response rating (scale 0 to 100), Corn” value ([16]; Postemergence, 16 g ai/ha) was 5. For the same compound, the “Corn plant response rating” value [16, 19] was 10, the “Plant response rating, Corn” value [16, 20] was 10 and the “Plant response rating, Corn” value [16, 21] was 15. For the same compound, the “Plant response rating (scale 0 to 100), Corn” value ([16]; Preemergence, 125 g ai/ha) was 5, the “Plant response rating, Corn” value [16, 22] was 0 and the “Plant response rating, Corn” value [16, 23] was 0. For the same compound, the “Plant response rating, Corn” value [16, 24] was 0, the “Plant response rating (scale 0 to 100), Ryegrass, Italian” value ([17]; Postemergence, 16 g ai/ha) was 0 and the “Ryegrass, Italian plant response rating” value [17, 19] was 5. For the same compound, the “Ryegrass, Italian plant response rating” value [17, 20] was 5, the “Plant response rating, Ryegrass, Italian” value [17, 21] was 20 and the “Plant response rating (scale 0 to 100), Ryegrass, Italian” value ([17]; Preemergence, 125 g ai/ha) was 80. The “Plant response rating, Ryegrass, Italian” value [17, 22] was 0, the “Plant response rating, Ryegrass, Italian” value [17, 23] was 5 and the “Plant response rating, Ryegrass, Italian” value [17, 24] was 15. The “Plant response rating (scale 0 to 100), Barnyardgrass” value ([18]; Postemergence, 16 g ai/ha) was 0, the “Barnyardgrass plant response rating” value [18, 19] was 0 and the “Plant response rating, Barnyardgrass” value [18, 20] was 5. For the same compound, the “Plant response rating, Barnyardgrass” value [18, 21] was 5, the “Plant response rating (scale 0 to 100), Barnyardgrass” value ([18]; Preemergence, 125 g ai/ha) was 35 and the “Plant response rating, Barnyardgrass” value [18, 22] was 0. The “Plant response rating, Barnyardgrass” value [18, 23] was 5 and the “Plant response rating, Barnyardgrass” value [18, 24] was 15.
